“And” between values parts separate entries of the source, which are not always exact repeats. Equal entries are not always repeated. “Also recorded” adds a separate entry of the source.
Legend:
[1] = tested on: protein mannosyl transferases (PMTs), crude enzyme; assay: LUV-based (UPV) PMT activity assay: transfer of [3H]-mannose from Dol-P-Man to acceptor peptide; format: biochemical, S. cervisiae; settings: for inhibition of the PMT enzyme by divalent cation chelator: LUV assay conditions (FIG. 7B)
Description: The assays using the UPV method contained 20 mM Tris-HCl, pH 7.5, 10 mM MgCl2, 2.5 mM of the peptide, YNPTSV, 1.5 μl Dol-P-[^3H]-Man (approximately 0.9×10^6 cpm) “solubilized” in 100 μg POPC LUV's and 8 μg of crude enzyme (see Example 2) in a final volume of 40 μl. The assay samples were incubated for 2-30 minutes (varied per individual experiments) at 20° C. and at the end of the incubation the reaction was stopped by the addition of 10 μl 50 mM CuSO4 or 1 ml 0.1% TFA.
Assay reaction products were isolated on C18 cartridges (1 cc/100 mg Bond Elut) obtained from Varian [Homa et al. Prot. Exp. Purif., 6:141-48; 1995]. Isolation of reaction product by solvent extraction was carried out as described by Strahl-Bolsinger and Tanner [Eur. J. Biochem., 196:185-90; 1991].
As part of the characterization of the UPV PMT assay, other parameters such as the influence of detergents and ion dependence were also investigated. PMT assays (using LUVs as produced by the method in Example 3) were conducted by the methods of Example 5. Assays were performed at two concentrations of enzymes (5 and 10 μl). Buffers containing only CHAPS or CHAPS+50% glycerol were substituted for the standard Extraction Buffer used to solubilize the ezyme (see FIG. 6A). The effect of increased detergent concentration was investigated by the addition of increasing amounts of Extraction Buffer (see FIG. 6B).
Experiments were also conducted (as described immediately above) to determine whether PMTs are ion dependent. The control assay (10 mM Mg) contained LUVs made in buffer containing 10 mM MgCl2. All other assays contained LUVs prepared in buffer without MgCl2. […] Enzymol. Relat. Areas Mol. Biol., 52:23-175; 1981].

[2] = tested on: protein mannosyl transferases (PMTs); settings: detergent based assay; read-out: Km previously determined; cited from earlier work
[3] = tested on: T1, acceptor peptide YNPTSV
T1 sequence: YNPTSV

In the case of `O=C(O)CN(CCN(CC(=O)O)CC(=O)O)CC(=O)O` [EDTA], the “inhibition of the PMT enzyme by divalent cation chelator” value (“inhibition of the PMT enzyme” for short) [1] is reported as “does not inhibit the enzyme; also recorded: appears not to inhibit the enzyme”.
For `O=C(O)CN(CCOCCOCCN(CC(=O)O)CC(=O)O)CC(=O)O` [EGTA], the “inhibition of the PMT enzyme” value [1] was “equally ineffective”.
In the case of `c1cnc2c(c1)ccc1cccnc12` [orthophenanthroline], the “inhibition of the PMT enzyme” value [1] is reported as “equally ineffective”.
For “YNPTSV (synthesized acceptor peptide) [standard synthetic acceptor peptide containing an acceptor site for PMTs]”, the Vmax ([1]; Dol-P-Man in POPC LUVs, crude enzyme preparation) is listed as “approximately 7.25 pmol min.^−1 mg protein^−1”, the Km ([1]; Dol-P-Man in POPC LUVs, crude enzyme preparation (yeast microsomal lysate), read-out: apparent Km for the acceptor peptide) is listed as 1.5 mM and ~1 mM and the Km [2] is listed as 3.3 mM.
For “protein mannosyl transferases (PMTs), crude detergent extract of S. cervisiae (strain BY4743) microsomal membranes”, the “Vmax (LUV-based PMT enzyme activity assay, crude enzyme)” value [3] was “Vmax was determined to be approximately 7.25 pmol min.^-1 mg protein^-1”, the “apparent Km (LUV-based PMT enzyme activity assay, crude enzyme)” value [3] was “the apparent Km (using crude enzyme preparation) was determined to be approximately 1 mM” and the “apparent Km (LUV-based PMT enzyme activity assay, crude yeast microsomal lysate)” value [3] was “an apparent Km of 1.5 mM, for the acceptor peptide YNPTSV”.
